Converted amounts (≈) assume the structure as drawn.
How the values were obtained:
[1] = system: Aspergillus fumigatus IHEM 18963 (NCPF 7367); assay: CLSI broth dilution antifungal susceptibility (microplates); type: cell-based; conditions: for MIC100 (48 h): 48 hours of incubation; for MIC: NCPF7367, 48 hours of incubation, read-out: MIC100 (48 h)
Procedure: (§1) The above strains were contacted with oleyl phosphocholine on microplates and the anti-fungal activity of oleyl phosphocholine was determined. In comparison, the same test was performed using amphotericin B (AMB), voriconazole (VRZ) and itraconazole (ITR). The test protocol used was in conformity with the standard CLSI method: Clinical and Laboratory Standards Institute/National Committee for Clinical Laboratory Standards (2002) Reference method for broth dilution antifungal susceptibility testing of yeasts. […] Clinical and Laboratory Standards Institute/National Committee for Clinical Laboratory Standards Institute, Wayne Pa. Clinical and Laboratory Standards Institute/National Committee for Clinical Laboratory Standards. (2002) Reference method for broth dilution antifungal susceptibility testing of filamentous fungi. Approved Standard document M38-A. Clinical and Laboratory Standards Institute/National Committee for Clinical Laboratory Standards Institute, Wayne […]

[2] = system: Aspergillus niger IHEM 5788 (ATCC 10864); assay: as above; type: cell-based; conditions: for MIC100 (48 h): 48 hours of incubation; for MIC: ATCC10864, 48 hours of incubation, read-out: MIC100 (48 h)
Procedure: as §1

[3] = system: Aspergillus terreus IHEM 13669 (clinical isolate); assay: as above; type: cell-based; conditions: 48 hours of incubation; for MIC: read-out: MIC100 (48 h)
Procedure: as §1

[4] = system: Candida albicans IHEM 3731 (ATCC 10231); assay: as above; type: cell-based; conditions: for MIC100 (48 h): 48 hours of incubation, inhibits growth of 100%; for MIC50: ATCC10231, 48 hours of incubation, inhibits growth of 50%
Procedure: as §1

[5] = system: Candida glabrata IHEM 19371 (clinical blood isolate); assay: as above; type: cell-based; conditions: 48 hours of incubation; for MIC100 (48 h): inhibits growth of 100%; for MIC50: Nakaseomyces glabratus, inhibits growth of 50%
Procedure: as §1

[6] = system: Candida krusei IHEM 9560 (ATCC 6258); assay: as above; type: cell-based; conditions: for MIC100 (48 h): 48 hours of incubation, inhibits growth of 100%; for MIC50: Pichia kudriavzevii, ATCC6258, 48 hours of incubation, inhibits growth of 50%
Procedure: as §1

[7] = system: Candida parapsilosis IHEM 3270 (ATCC 22019); assay: as above; type: cell-based; conditions: for MIC100 (48 h): 48 hours of incubation, inhibits growth of 100%; for MIC50: Lodderomyces parapsilosis, ATCC22019, 48 hours of incubation, inhibits growth of 50%
Procedure: as §1

[8] = system: Fusarium solani IHEM 18489 (clinical isolate); assay: as above; type: cell-based; conditions: 48 hours of incubation; for MIC: read-out: MIC100 (48 h)
Procedure: as §1

[9] = system: Scedosporium prolificans IHEM 22387 (clinical blood isolate); assay: as above; type: cell-based; conditions: 48 hours of incubation; for MIC: Lomentospora prolificans, read-out: MIC100 (48 h)
Procedure: as §1

[10] = system: Candida albicans IHEM 19114 (clinical blood isolate resistant for voriconazole and itraconazole); assay: as above; type: cell-based; conditions: Candida albicans IHEM 19114 (resistant), 48 hours of incubation; for MIC100 (48 h): inhibits growth of 100%; for MIC50: inhibits growth of 50%
Procedure: The following ten strains were tested for assaying the anti-fungal activity of oleyl phosphocholine.
The above strains were contacted with oleyl phosphocholine on microplates and the anti-fungal activity of oleyl phosphocholine was determined. In comparison, the same test was performed using amphotericin B (AMB), voriconazole (VRZ) and itraconazole (ITR).
The test protocol used was in conformity with the standard CLSI method:
Clinical and Laboratory Standards Institute/National Committee for Clinical Laboratory Standards (2002) Reference method for broth dilution antifungal susceptibility testing of yeasts. Approved Standard document M27-A2. Clinical and Laboratory Standards Institute/National Committee for Clinical Laboratory Standards Institute, Wayne Pa. Clinical and Laboratory Standards Institute/National Committee for Clinical Laboratory Standards. (2002) Reference method for broth dilution antifungal susceptibility testing of filamentous fungi. Approved Standard document M38-A. Clinical and Laboratory Standards Institute/National Committee for Clinical Laboratory Standards Institute, Wayne
The results, after visual and spectrophometric reading after 48 hours of incubation, are presented as MIC50 and MIC 100, i.e. the minimum inhibitory concentration required inhibiting the growth of 50% or 100% of the microorganisms, respectively.

Candida yeast = conditions: patients with culture-proven candidemia; cited from earlier work
[11] = people taking itraconazole; cited from earlier work
[12] = system: Aspergillus fumigatus B19119; assay: In vitro efficacy against yeasts and fungi (microplates); type: cell-based
Procedure: (§2) The above strains were contacted oleyl phosphocholine on microplates and the anti-fungal activity of oleyl phosphocholine was determined. Anti-fungal activity was expressed as IC50, i.e. the concentration oleyl phosphocholine needed to kill 50% of the pathogens.

[13] = system: Aspergillus fumigatus B42928; assay: as above; type: cell-based
Procedure: as §2

Aspergillus fumigatus = assay: as above; type: cell-based
Procedure: as §2

[14] = system: Candida albicans B59630 (R); assay: as above; type: cell-based
Procedure: as §2

[15] = system: Candida albicans B63195 (S); assay: as above; type: cell-based
Procedure: as §2

Candida albicans = assay: as above; type: cell-based; conditions: concentration needed to kill 50% of the pathogens
Procedure: as §2

[16] = system: Candida parapsilosis B66126; assay: as above; type: cell-based
Procedure: as §2

[17] = system: Cryptococcus neoformans B66663; assay: as above; type: cell-based
Procedure: as §2

Cryptococcus neoformans = assay: as above; type: cell-based
Procedure: as §2

[18] = system: Fusarium oxysporum IHEM3014; assay: as above; type: cell-based
Procedure: as §2

[19] = system: Fusarium solani IHEM22128; assay: as above; type: cell-based
Procedure: as §2

Microsporum canis = assay: as above; type: cell-based
Procedure: as §2

[20] = system: Sporothrix schenkii B62482; assay: as above; type: cell-based
Procedure: as §2

Sporothrix schenkii = assay: as above; type: cell-based
Procedure: as §2

[21] = system: Trichophyton mentagrophytes B70554; assay: as above; type: cell-based
Procedure: as §2

[22] = system: Trichophyton rubrum B68183; assay: as above; type: cell-based
Procedure: as §2

Trichophyton rubrum = assay: as above; type: cell-based
Procedure: as §2

SMILES | MIC100 (48 h) [1] | MIC100 (48 h) [2] | MIC100 (48 h) [3] | MIC100 (48 h) [4] | MIC100 (48 h) [5] | MIC100 (48 h) [6] | MIC100 (48 h) [7] | MIC100 (48 h) [8] | MIC100 (48 h) [9] | MIC100 (48 h) [10] | MIC [1] | MIC [2] | MIC [3] | MIC50 [4] | MIC50 [5] | MIC50 [6] | MIC50 [7] | MIC [8] | MIC [9] | MIC50 [10] | further results
C[C@@H]1[C@H](O)[C@@H](C)/C=C/C=C/C=C/C=C/C=C/C=C/C=C/[C@H](O[C@@H]2O[C@H](C)[C@@H](O)[C@H](N)[C@@H]2O)C[C@@H]2O[C@](O)(C[C@@H](O)C[C@@H](O)[C@H](O)CC[C@@H](O)C[C@@H](O)CC(=O)O[C@H]1C)C[C@H](O)[C@H]2C(=O)O [AMB, amphotericin B] | 2 µg/mL (≈ 2.16 µM) | 1 µg/mL (≈ 1.08 µM) | >8 µg/mL | 0.5 µg/mL (≈ 0.541 µM) | 0.5 µg/mL (≈ 0.541 µM) | 1 µg/mL (≈ 1.08 µM) | 1 µg/mL (≈ 1.08 µM) | 2 µg/mL (≈ 2.16 µM) | >8 µg/mL | 0.5 µg/mL (≈ 0.541 µM) | – | – | – | – | – | – | – | – | – | – | time to clear Candida yeast from the bloodstream (median) (Candida yeast): 2 days
CCC(C)n1ncn(-c2ccc(N3CCN(c4ccc(OCC5COC(Cn6cncn6)(c6ccc(Cl)cc6Cl)O5)cc4)CC3)cc2)c1=O (centres unmarked) [ITR, itraconazole] | – | – | – | – | – | – | – | – | – | – | 0.5 µg/mL (≈ 0.709 µM) | 0.5 µg/mL (≈ 0.709 µM) | 0.25 µg/mL (≈ 0.354 µM) | 0.032 µg/mL (≈ 0.0453 µM) | 0.5 µg/mL (≈ 0.709 µM) | 0.25 µg/mL (≈ 0.354 µM) | 0.064 µg/mL (≈ 0.0907 µM) | > 16 µg/mL | > 16 µg/mL | > 16 µg/mL | people with elevated alanine aminotransferase levels [11]: 4%
CCCCCCCC/C=C\CCCCCCCCOP(=O)([O-])OCC[N+](C)(C)C [OlPC, oleyl phosphocholine] | 5 µg/mL (≈ 11.5 µM) | 10 µg/mL (≈ 23.1 µM) | 10 µg/mL (≈ 23.1 µM) | 2.5 µg/mL (≈ 5.77 µM) | 5 µg/mL (≈ 11.5 µM) | 5 µg/mL (≈ 11.5 µM) | 5 µg/mL (≈ 11.5 µM) | 5 µg/mL (≈ 11.5 µM) | 5 µg/mL (≈ 11.5 µM) | 2.5 µg/mL (≈ 5.77 µM) | – | – | – | – | – | – | – | – | – | – | IC50 [12]: 1.87 µM; IC50 [13]: 8 µM; IC50 (Aspergillus fumigatus): 18.8 µM; IC50 [14]: 8 µM; IC50 [15]: 7.77 µM; IC50 (Candida albicans): 7.89 µM; IC50 [16]: 8 µM; IC50 [17]: 0.5 µM; IC50 (Cryptococcus neoformans): 4.5 µM; IC50 [18]: 2.55 µM; IC50 [19]: 2.31 µM; IC50 (Microsporum canis): 1.66 µM; IC50 [20]: 1.97 µM; IC50 (Sporothrix schenkii): 8.16 µM; IC50 [21]: 2 µM; IC50 [22]: 2 µM; IC50 (Trichophyton rubrum): 5.87 µM
C[C@@H](c1ncncc1F)[C@](O)(Cn1cncn1)c1ccc(F)cc1F [VRZ, voriconazole] | – | – | – | – | – | – | – | – | – | – | 1 µg/mL (≈ 2.86 µM) | 1 µg/mL (≈ 2.86 µM) | 0.5 µg/mL (≈ 1.43 µM) | 0.064 µg/mL (≈ 0.183 µM) | 0.25 µg/mL (≈ 0.716 µM) | 0.5 µg/mL (≈ 1.43 µM) | 0.125 µg/mL (≈ 0.358 µM) | 16 µg/mL (≈ 45.8 µM) | 16 µg/mL (≈ 45.8 µM) | > 16 µg/mL | –
